For the test, the target named is T1, MgSDR1 (Meyerozyma guilliermondii, UniProt A5DPG9).
T1 construct: gene PGUG_05170; pET-30a(+) BamHI/XhoI, N-terminal 6xHis tag, E. coli Rosetta (DE3), imidazole-eluted, approx. 40 kDa with tag; catalytic triad Ser174-Tyr188-Lys192; GXXXGXG and YXXXK motifs
Description: degradation kinetics (details in supplement). It is filed as biochemical. Particulars: co-substrate NADPH; pH and temperature of the kinetic assay not given in the main text.

T1 sequence (A5DPG9 entry or part of it): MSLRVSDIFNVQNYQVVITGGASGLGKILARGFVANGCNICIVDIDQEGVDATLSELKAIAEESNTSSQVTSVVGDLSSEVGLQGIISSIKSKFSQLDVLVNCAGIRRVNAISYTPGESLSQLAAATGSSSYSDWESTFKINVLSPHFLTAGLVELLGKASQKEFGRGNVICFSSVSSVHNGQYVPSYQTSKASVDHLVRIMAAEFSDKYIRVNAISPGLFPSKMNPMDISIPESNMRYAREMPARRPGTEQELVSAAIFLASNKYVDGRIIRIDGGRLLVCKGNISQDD

Regarding `O=C1C=C2C(=CCOC2O)O1` (stereo not shown) [PAT], the Km (usually the concentration of substrate that gives half-maximal velocity) stood at 1420 µM.
